Measured values published in article PMC10949930 (ACS Chemical Biology, 2024).
Converted amounts (≈) assume the structure as drawn.

Key:
[1] = system: S. aureus NCTC8325; assay: MIC, broth microdilution; assay type: cell-based; details: Staphylococcus aureus, NCTC8325, 20 h, read-out: MIC S. aureus NCTC8325
[2] = system: B. subtilis 168; assay: MIC, broth microdilution; assay type: cell-based; details: Bacillus subtilis, 168, 20 h, read-out: MIC B. subtilis 168
[3] = system: S. aureus NCTC8325 cells; assay: Protonophore assay, intracellular pH by BCECF AM; assay type: cell-based, Staphylococcus aureus; details: 1× MIC, 10 min; for intracellular pH after compound addition: dropped from pH 7.8
[4] = system: S. aureus NCTC8325; assay: Pore-forming assay, SYTO9/propidium iodide costaining; assay type: cell-based, Staphylococcus aureus; details: 4× MIC; nisin 100 μg mL^–1; 35 min
[5] = system: B. subtilis 168 cells; assay: Membrane dye FM 5–95 labeling after compound exposure; assay type: cell-based, Bacillus subtilis; details: B. subtilis 168, 1× MIC, 15 min; CCCP 100 μM
[6] = system: GFP-MinD in B. subtilis cells; assay: GFP-MinD localization; assay type: cell-based, Bacillus subtilis; details: 10 min, 1× MIC, CCCP 100 μM
[7] = system: S. aureus; details: atropisomers compared; cited from earlier work

Row | Compound | MIC [1] [ng/mL] | MIC [2] [ng/mL] | drop of intracellular pH (Δ) [3] [pH units] | intracellular pH after compound addition [3] | membrane integrity / pore formation (SYTO9/propidium iodide) [4] | other results
1 | Oc1c(Cl)cc(Cl)cc1-c1[nH]c(Cl)c(Cl)c1Cl [compound 3, pentachloropseudilin] | 4 (≈ 0.0121 µM) | 4 (≈ 0.0121 µM) | 0.2 | 7.6 | only green fluorescence | –
2 | nisin [reference compound] | – | – | – | – | clear red fluorescence indicative of pore formation | –
3 | N#CC(C#N)=NNc1cccc(Cl)c1 [CCCP, carbonyl cyanide m-chlorophenyl hydrazone] | – | – | – | – | – | localization of membrane dye FM 5–95 after treatment [5]: aggregated, inhomogeneous, “spotty” localization; GFP-MinD localization after treatment [6]: diffuse and spotty
4 | Oc1c(Br)cc(Br)cc1-c1[nH]c(Br)c(Br)c1Br [compound 2, pentabromopseudilin] | 16 (≈ 0.0289 µM) | 16 (≈ 0.0289 µM) | 0.2 | 7.6 | – | –
5 | O=C(c1ccccc1O)c1[nH]c(Cl)c(Cl)c1-n1c(C(=O)c2ccccc2O)cc(Cl)c1Cl (atropisomer, axis not shown; (M)) [(−)-(M)-MarA] | – | – | – | – | – | potency against S. aureus [7]: equal potency
